In ChEMBL document CHEMBL1137955, “Advances toward new antidepressants beyond SSRIs: 1-aryloxy-3-piperidinylpropan-2-ols with dual 5-HT1A receptor antagonism/SSRI activities. Part 4” (Bioorg Med Chem Lett, 2004):
pKi: −log10 of the molar value.

What was measured:
[1] = molecular target: Sodium-dependent serotonin transporter (Homo sapiens, UniProt P31645); assay: Binding affinity at 5-HT reuptake site labeled with [3H]paroxetine
[2] = molecular target: T1, 5-hydroxytryptamine receptor 1A (Homo sapiens, UniProt P08908); assay: Binding affinity was evaluated at 5-hydroxytryptamine 1A receptor labeled with [3H]-8-OH-DPAT
T1 sequence (P08908 whole entry): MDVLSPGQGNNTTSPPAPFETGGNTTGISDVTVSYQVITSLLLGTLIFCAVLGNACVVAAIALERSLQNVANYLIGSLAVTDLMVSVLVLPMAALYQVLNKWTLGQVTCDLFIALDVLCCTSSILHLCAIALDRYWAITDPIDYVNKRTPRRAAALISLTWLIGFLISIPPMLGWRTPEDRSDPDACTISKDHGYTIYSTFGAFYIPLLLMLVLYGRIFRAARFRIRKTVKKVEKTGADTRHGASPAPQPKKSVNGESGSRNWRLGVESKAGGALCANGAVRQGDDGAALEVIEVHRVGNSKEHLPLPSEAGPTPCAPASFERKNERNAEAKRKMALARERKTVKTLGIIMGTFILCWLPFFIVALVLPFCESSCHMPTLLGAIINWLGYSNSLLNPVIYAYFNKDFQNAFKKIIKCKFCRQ

[3] = molecular target: T2, 5-hydroxytryptamine receptor 1A (Homo sapiens) (UniProt P08908); assay: Evaluated for stimulation at 1 uM concentration expressed as percent of the maximal [35S]GTP-gamma-S, binding induced by 5-hydroxytryptamine; format: functional
T2 sequence (whole entry): T1 sequence (P08908 whole entry)

Chain of Sodium-dependent serotonin transporter (P31645 whole entry): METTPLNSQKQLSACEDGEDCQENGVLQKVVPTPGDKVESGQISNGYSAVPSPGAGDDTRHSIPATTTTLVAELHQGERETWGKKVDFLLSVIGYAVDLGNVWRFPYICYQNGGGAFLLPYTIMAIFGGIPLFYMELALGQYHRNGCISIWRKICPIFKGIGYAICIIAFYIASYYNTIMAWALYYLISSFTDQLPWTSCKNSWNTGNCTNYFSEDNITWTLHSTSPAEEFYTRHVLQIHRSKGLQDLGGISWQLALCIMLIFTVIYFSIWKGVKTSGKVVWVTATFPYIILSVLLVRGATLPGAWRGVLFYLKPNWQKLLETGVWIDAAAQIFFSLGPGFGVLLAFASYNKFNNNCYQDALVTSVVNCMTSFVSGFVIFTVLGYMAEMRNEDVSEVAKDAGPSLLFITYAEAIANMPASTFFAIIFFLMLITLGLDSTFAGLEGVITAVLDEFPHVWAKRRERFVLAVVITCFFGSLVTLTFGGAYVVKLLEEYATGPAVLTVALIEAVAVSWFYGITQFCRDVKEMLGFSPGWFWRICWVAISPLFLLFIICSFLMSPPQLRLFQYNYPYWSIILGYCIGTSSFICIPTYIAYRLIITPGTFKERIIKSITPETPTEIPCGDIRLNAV

SMILES | pKi [1] | pKi [2] | Emax [3] [%]
Cc1cc2c(OC[C@@H](O)CN3CC[C@@H](c4ccc5ccoc5c4)C[C@@H]3C)cccc2[nH]1 | 8.42 | 8.98 | 6
COc1cccc2sc([C@@H]3CCN(C[C@H](O)COc4cccc5[nH]c(C)cc45)[C@@H](C)C3)cc12 | 9.07 |  | 3
COc1cccc2ccc([C@@H]3CCN(C[C@H](O)COc4cccc5[nH]c(C)cc45)[C@@H](C)C3)cc12 | 9.47 | 7.96 | 11
O[C@@H](COc1cccc2[nH]ccc12)CN1CCC(c2cc3ccccc3s2)CC1 | 7.78 | 8.43 | 12
Cc1cc2c(OC[C@H](O)CN3CC[C@@H](c4ccc5occc5c4)C[C@@H]3C)cccc2[nH]1 | 8.77 | 8.86 | 9
Cc1cc2c(OC[C@@H](O)CN3CC[C@@H](c4cc5ccccc5s4)C[C@@H]3C)cccc2[nH]1 | 9.28 |  | 
Cc1cc2c(OC[C@@H](O)CN3CC[C@@H](c4ccc5c(C)csc5c4)C[C@@H]3C)cccc2[nH]1 | 9.24 | 8.11 | 4
O[C@@H](COc1cccc2[nH]ccc12)CN1CCC(c2csc3ccccc23)CC1 |  | 8.74 | 
Cc1cc2c(OC[C@@H](O)CN3CC[C@@H](c4ccc5ccccc5c4)C[C@@H]3C)cccc2[nH]1 | 9.40 | 8.29 | 9

Results, then the compound that gave them:

pKi [1] | pKi [2] | Emax [3] [%] | SMILES
9.12 | 8.35 | 12 | Cc1cc2c(OC[C@@H](O)CN3CC[C@@H](c4ccc5ccsc5c4)C[C@@H]3C)cccc2[nH]1
9.52 | 8.84 | 12 | Cc1cc2c(OC[C@H](O)CN3CC[C@@H](c4ccc5sccc5c4)C[C@@H]3C)cccc2[nH]1
9.27 | 8.51 | 8 | Cc1cc2c(OC[C@@H](O)CN3CC[C@@H](c4ccc5scc(C)c5c4)C[C@@H]3C)cccc2[nH]1
8.03 | 9.04 | 8 | Cc1cc2c(OC[C@@H](O)CN3CC[C@@H](c4cccc5ccsc45)C[C@@H]3C)cccc2[nH]1
8.14 | 8.91 | 8 | Cc1cc2c(OC[C@@H](O)CN3CC[C@@H](c4cccc5occc45)C[C@@H]3C)cccc2[nH]1
8.36 | 8.74 | 15 | Cc1cc2c(OC[C@H](O)CN3CC[C@@H](c4cccc5sccc45)C[C@@H]3C)cccc2[nH]1
